In this assay the test system is BDF1 mice, B16 melanoma ip, median survival T/C. In words: NCI In Vivo Anticancer Drug Screen. Data for tumor model B16 Melanoma (intraperitoneal) in B6D2F1 (BDF1) mice. The following applies: endpoint: median survival time, higher = longer survival. A digest of the protocol: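 Transplantable tumor model; survival or tumor size measured; reported as T/C, treated over vehicle control.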

The mark [1] stands for this setting: dose: 25.0 mg/kg/injection, schedule: Q01DX009 (ip), vehicle: saline.
The mark [2] stands for this setting: dose: 50.0 mg/kg/injection, schedule: Q01DX009 (ip), vehicle: saline.
[3] abbreviates: dose: 100.0 mg/kg/injection, schedule: Q01DX009 (ip), vehicle: saline.
Where [4] appears, read: dose: 50.0 mg/kg/injection, schedule: Q01DX009 (ip), vehicle: Klucel (hydroxypropylcellulose) (HPC).
[5] abbreviates: dose: 100.0 mg/kg/injection, schedule: Q01DX009 (ip), vehicle: Klucel (hydroxypropylcellulose) (HPC).
[6] abbreviates: dose: 200.0 mg/kg/injection, schedule: Q01DX009 (ip), vehicle: Klucel (hydroxypropylcellulose) (HPC).
Setting [7] is: dose: 50.0 mg/kg/injection, schedule: Q01DX009 (ip), vehicle: saline with Tween-80.
[8] abbreviates: dose: 100.0 mg/kg/injection, schedule: Q01DX009 (ip), vehicle: saline with Tween-80.
The mark [9] stands for this setting: dose: 100.0 mg/kg/injection, schedule: Q04DX003 (ip), vehicle: Klucel (hydroxypropylcellulose) (HPC).

SMILES strings stand for the structures. Values joined by “and” are separate entries in the source; they are usually repeats but may differ in a detail not shown here. Equal entries are not always repeated. Toxic doses and inconclusive results are not listed.

Turning to `C=C(C)C12OC3(CCCCCCCCC)OC1C1C4OC4(COC(=O)CCCCCCCCCCCCCCC)C(O)C4(O)C(=O)C(C)=CC4C1(O3)C(C)C2OC(=O)c1ccccc1` (stereo unspecified), the T/C reads like this: (dose: 0.5 micrograms/kg/injection, schedule: Q01DX009 (ip), vehicle: saline) 102 % of control; (dose: 1.0 micrograms/kg/injection, schedule: Q01DX009 (ip), vehicle: saline) 105 % of control; (dose: 1.9 micrograms/kg/injection, schedule: Q01DX009 (ip), vehicle: saline) 91 % of control; (dose: 3.8 micrograms/kg/injection, schedule: Q01DX009 (ip), vehicle: saline) 110 % of control; (dose: 7.5 micrograms/kg/injection, schedule: Q01DX009 (ip), vehicle: saline) 91 % of control; (dose: 15.0 micrograms/kg/injection, schedule: Q01DX009 (ip), vehicle: saline) 100 % of control. In addition, where the note is “dose: 30.0 micrograms/kg/injection, schedule: Q01DX009 (ip), vehicle: saline”, the T/C was 100 % of control.

`CNCCN(C)Cc1ccccc1`: the T/C under setting [1] was 97 % of control, the T/C under setting [2] was 94 % of control and the T/C under setting [3] is 89 % of control.

`CC(=O)Nc1ccc(N=Nc2c(O)c(S(=O)(=O)O)cc3cc(S(=O)(=O)O)ccc23)cc1`: the T/C (dose: 200.0 mg/kg/injection, schedule: Q01DX009 (ip), vehicle: saline with Tween-80) is 100 % of control.

For `Nc1cc(N)cc(Cc2ccccc2)c1`, the T/C is 101 % of control under setting [4], 93 % of control under setting [5] and 100 % of control under setting [6].

As for `CC(=O)[O][Pb]([CH2]CC(C)C)([CH2]CC(C)C)[CH2]CC(C)C`, the T/C runs as follows: (dose: 0.75 mg/kg/injection, schedule: Q01DX009 (ip), vehicle: Klucel (hydroxypropylcellulose) (HPC)) 100 % of control; (dose: 1.5 mg/kg/injection, schedule: Q01DX009 (ip), vehicle: Klucel (hydroxypropylcellulose) (HPC)) 86 % of control.

In the case of `CC(C)(N)Cc1ccc(Cl)cc1`, the T/C is, setting by setting: (dose: 6.25 mg/kg/injection, schedule: Q01DX009 (ip), vehicle: saline) 110 % of control; (dose: 12.5 mg/kg/injection, schedule: Q01DX009 (ip), vehicle: saline) 90 % of control; under setting [1], 97 % of control; under setting [2], 100 % of control; under setting [3], 100 % of control.

Consider `CC1C2CCC(C2)C1C(=O)O` (stereo unspecified), for which the T/C is, setting by setting: (dose: 100.0 mg/kg/injection, schedule: Q04DX003 (ip), vehicle: other) 102 % of control; (dose: 200.0 mg/kg/injection, schedule: Q04DX003 (ip), vehicle: other) 102 % of control; (dose: 400.0 mg/kg/injection, schedule: Q04DX003 (ip), vehicle: other) 89 % of control.

As for `CS(C)=O`, the T/C is, setting by setting: (dose: 1:200.0 dilution, schedule: Q03HX088 (ip), vehicle: saline) 89 % of control; (dose: 1:400.0 dilution, schedule: Q03HX088 (ip), vehicle: saline) 89 % of control; (dose: 1.5 grams/kg/injection, schedule: Q01DX009 (ip), vehicle: saline) 96 % of control and 101 % of control; (dose: 3.0 grams/kg/injection, schedule: Q01DX009 (ip), vehicle: saline) 106 % of control and 108 % of control; (dose: 6.0 grams/kg/injection, schedule: Q01DX009 (ip), vehicle: saline) 97 % of control.

For `CCCCCCCCCCCCCCC/C([O-])=N/[N+](C)(C)CC(C)O` (stereo unspecified), the T/C (dose: 25.0 mg/kg/injection, schedule: Q01DX001 (ip), vehicle: saline) was 97 % of control; the T/C (dose: 50.0 mg/kg/injection, schedule: Q01DX001 (ip), vehicle: saline) was 96 % of control; the T/C (dose: 100.0 mg/kg/injection, schedule: Q01DX001 (ip), vehicle: saline) was 95 % of control; the T/C (dose: 200.0 mg/kg/injection, schedule: Q01DX001 (ip), vehicle: saline) is 95 % of control.

Regarding `CC(=O)SCC(C)CCl` (stereo unspecified), the T/C reads like this: under setting [7], 100 % of control; under setting [8], 100 % of control.

Turning to `CCCCCCCC(=O)N/N=C(\CO)[C@]1(O)Cc2c(O)c3c(c(O)c2[C@@H](OC2CC(N)C(O)C(C)O2)C1)C(=O)c1c(OC)cccc1C3=O` (stereo partly specified), the T/C is 168 % of control (dose: 3.13 mg/kg/injection, schedule: Q01DX001 (ip), vehicle: water); 157 % of control and 200 % of control (dose: 6.25 mg/kg/injection, schedule: Q01DX001 (ip), vehicle: water); 173 % of control and 212 % of control (dose: 12.5 mg/kg/injection, schedule: Q01DX001 (ip), vehicle: water); 174 % of control and 220 % of control and 231 % of control (dose: 25.0 mg/kg/injection, schedule: Q01DX001 (ip), vehicle: water); 91 % of control and 228 % of control and 236 % of control (dose: 50.0 mg/kg/injection, schedule: Q01DX001 (ip), vehicle: water).

Take `c1ccc(N/N=C2/CCN3CCCc4cccc2c43)cc1`: the T/C (dose: 25.0 micrograms/kg/injection, schedule: Q01DX009 (ip), vehicle: DMSO) was 86 % of control.

On to `CC(=O)CC(=O)Nc1cccc(Cl)c1C`, for which the T/C is 103 % of control under setting [4], 96 % of control under setting [5] and 106 % of control under setting [6].

Regarding `CS(=O)(=O)Nc1ccc(C(=O)O)cc1`, the T/C was 100 % of control under setting [5] and 102 % of control under setting [6].

Take `Cc1ccc(S(=O)(=O)Oc2ccc(-c3ccc(OS(=O)(=O)c4ccc(C)cc4)cc3)cc2)cc1`: the T/C reads like this: under setting [7], 105 % of control; under setting [8], 90 % of control.

In the case of `O=C(O)[C@@H]1[C@H](C(=O)O)[C@H](C(=O)O)C[C@@H]1C(=O)O`, the T/C was 102 % of control under setting [3]; 94 % of control (dose: 200.0 mg/kg/injection, schedule: Q01DX009 (ip), vehicle: saline); 96 % of control (dose: 400.0 mg/kg/injection, schedule: Q01DX009 (ip), vehicle: saline).

Regarding `COc1ccc(C(C#N)N2CCOCC2)cc1` (stereo unspecified), the T/C is 89 % of control under setting [4]; 95 % of control (dose: 50.0 mg/kg/injection, schedule: Q04DX003 (ip), vehicle: Klucel (hydroxypropylcellulose) (HPC)); 97 % of control under setting [9].

As for `Cc1ccc(Cl)cc1NC(=O)c1ccc(Cl)cc1Cl`, the T/C reads like this: under setting [9], 95 % of control; (dose: 200.0 mg/kg/injection, schedule: Q04DX003 (ip), vehicle: Klucel (hydroxypropylcellulose) (HPC)) 102 % of control.

The values above are taken from PubChem BioAssay AID192 (DTP/NCI, 2004).
